Source: US20220002314A1 (priority 2018, published 2022)
Like-named read-outs stand apart in the source and are kept apart here.

Key:
[1] = biological target: Human α2δ-1 subunit of Cav2.2 calcium channel (Homo sapiens, UniProt P54289); assay: biochemical; type: binding
Human μ-opioid receptor = Human μ-opioid receptor (Homo sapiens, UniProt P35372); assay: biochemical; type: binding
Chain of Human μ-opioid receptor (P35372 whole entry): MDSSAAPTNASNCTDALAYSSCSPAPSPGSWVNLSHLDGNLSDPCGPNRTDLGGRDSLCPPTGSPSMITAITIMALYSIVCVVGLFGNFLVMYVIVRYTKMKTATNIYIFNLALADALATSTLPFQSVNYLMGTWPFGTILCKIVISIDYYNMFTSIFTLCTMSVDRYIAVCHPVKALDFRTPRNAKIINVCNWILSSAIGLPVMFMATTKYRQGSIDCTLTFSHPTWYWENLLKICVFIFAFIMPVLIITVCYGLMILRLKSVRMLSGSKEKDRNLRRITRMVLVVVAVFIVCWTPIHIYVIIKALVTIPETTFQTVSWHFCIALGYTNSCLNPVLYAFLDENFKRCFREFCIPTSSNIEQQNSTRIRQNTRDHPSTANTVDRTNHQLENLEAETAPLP

Chain of Human α2δ-1 subunit of Cav2.2 calcium channel (P54289 25-1103): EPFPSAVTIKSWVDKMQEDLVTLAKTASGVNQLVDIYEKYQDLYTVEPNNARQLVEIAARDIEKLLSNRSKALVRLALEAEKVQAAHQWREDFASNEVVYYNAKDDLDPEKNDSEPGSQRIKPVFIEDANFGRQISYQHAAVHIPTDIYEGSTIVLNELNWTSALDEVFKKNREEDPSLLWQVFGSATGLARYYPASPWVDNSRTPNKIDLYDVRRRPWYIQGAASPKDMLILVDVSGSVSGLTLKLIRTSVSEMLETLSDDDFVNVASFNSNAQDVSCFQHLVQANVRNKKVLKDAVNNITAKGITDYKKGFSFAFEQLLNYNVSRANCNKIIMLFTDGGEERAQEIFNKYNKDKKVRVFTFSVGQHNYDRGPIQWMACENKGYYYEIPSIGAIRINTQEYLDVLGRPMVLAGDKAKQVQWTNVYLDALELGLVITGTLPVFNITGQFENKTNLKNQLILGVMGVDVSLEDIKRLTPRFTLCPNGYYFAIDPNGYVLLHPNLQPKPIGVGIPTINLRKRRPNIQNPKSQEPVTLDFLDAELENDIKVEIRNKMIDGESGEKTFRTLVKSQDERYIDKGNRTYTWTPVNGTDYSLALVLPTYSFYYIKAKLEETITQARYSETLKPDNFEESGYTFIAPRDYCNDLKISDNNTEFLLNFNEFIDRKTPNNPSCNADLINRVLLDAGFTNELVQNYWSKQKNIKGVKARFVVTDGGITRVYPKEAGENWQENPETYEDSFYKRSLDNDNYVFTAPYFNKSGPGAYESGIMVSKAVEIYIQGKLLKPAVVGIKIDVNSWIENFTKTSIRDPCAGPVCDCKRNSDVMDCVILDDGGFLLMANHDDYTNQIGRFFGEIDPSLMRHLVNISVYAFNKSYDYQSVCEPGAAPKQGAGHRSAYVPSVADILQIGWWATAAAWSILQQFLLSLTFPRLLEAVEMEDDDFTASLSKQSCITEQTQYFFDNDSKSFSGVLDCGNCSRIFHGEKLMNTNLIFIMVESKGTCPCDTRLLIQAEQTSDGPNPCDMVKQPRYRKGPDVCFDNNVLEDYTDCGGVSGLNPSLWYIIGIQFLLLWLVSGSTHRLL

Row | SMILES | Ki [1] [nM] | Ki (Human μ-opioid receptor) [nM] | Ki ([1]; read-out: α2δ-1 binding) [nM] | Ki (Human μ-opioid receptor; read-out: μ-binding) [nM] | Ki (Human μ-opioid receptor; binding to μ-opioid receptor expressed as Ki, + also Ki>500 nM or inhibition between 1% and 50%, read-out: μ-binding) [nM]
1 | CCC[C@@H](c1nc2ccc(Br)cc2c(=O)n1CC)N1CCN[C@@H](COC)C1 [Example 220, 6-bromo-3-ethyl-2-((S)-1-((R)-3-(methoxymethyl)piperazin-1-yl)butyl)quinazolin-4(3H)-one] | > 5000 | > 500 | – | – | –
2 | CCC[C@@H](c1nc2ccc(Br)cc2c(=O)n1CC)N1CCN(C)[C@H](C)C1 [Example 110, 6-bromo-2-((S)-1-((R)-3,4-dimethylpiperazin-1-yl)butyl)-3-ethylquinazolin-4(3H)-one] | > 5000 | > 500 | – | – | –
3 | COCCn1c(C(CC(C)C)N2C[C@@H](C)N[C@@H](C)C2)nc2ccccc2c1=O (stereo partly drawn) [Example 114, 2-(1-((3S,5R)-3,5-dimethylpiperazin-1-yl)-3-methylbutyl)-3-(2-methoxyethyl)quinazolin-4(3H)-one] | – | – | > 5000 | > 500 | –
4 | CCC[C@@H](c1nc2ccc(N3C[C@H](C)OC4(CCN(CCc5ccccc5)CC4)C3)cc2c(=O)n1CC)N1C[C@@H](C)N[C@@H](C)C1 [Example 155, 2-((S)-1-((3S,5R)-3,5-dimethylpiperazin-1-yl)butyl)-3-ethyl-6-((S)-2-methyl-9-phenethyl-1-oxa-4,9-diazaspiro[5.5]undecan-4-yl)quinazolin-4(3H)-one] | < 500 | > 500 | – | – | –
5 | CCC[C@H](c1nc2ccc(Br)cc2c(=O)n1CC)[C@@H]1CCNCC1(F)F [Example 194, 6-Bromo-2-((S)-1-((S)-3,3-difluoropiperidin-4-yl)butyl)-3-ethylquinazolin-4(3H)-one] | > 5000 | > 500 | – | – | –
6 | CCCC(c1nc2ccc(N3CCC(NC)CC3)cc2c(=O)n1CC)N1C[C@@H](C)N[C@@H](C)C1 (stereo partly drawn) [Example 140, 2-(1-((3S,5R)-3,5-dimethylpiperazin-1-yl)butyl)-3-ethyl-6-(4-(methylamino)piperidin-1-yl)quinazolin-4(3H)-one] | < 500 | > 500 | – | – | –
7 | CCCC(c1nc2cc(F)c(Br)cc2c(=O)n1CC)N1C[C@@H](C)N[C@@H](C)C1 (stereo partly drawn) [Example 18, 6-bromo-2-(1-((3S,5R)-3,5-dimethylpiperazin-1-yl)butyl)-3-ethyl-7-fluoroquinazolin-4(3H)-one] | < 500 | > 500 | – | – | –
8 | CCCC(c1nc2cc(O)ccc2c(=O)n1C)N1C[C@@H](C)N[C@@H](C)C1 (stereo partly drawn) [Example 10, 2-(1-((3S,5R)-3,5-dimethylpiperazin-1-yl)butyl)-7-hydroxy-3-methylquinazolin-4(3H)-one] | < 500 | > 500 | – | – | –
9 | CCCC(c1nc2ccc(Br)cc2c(=O)n1CCC)N1CCNCC1 (centres unmarked) [Example 82, 6-bromo-2-(1-(piperazin-1-yl)butyl)-3-propylquinazolin-4(3H)-one] | < 500 | 100 to 500 | – | – | –
10 | CCC[C@H](c1nc2ccc(N3C[C@H](C)OC4(CCNCC4)C3)cc2c(=O)n1CC)N1C[C@@H](C)N[C@@H](C)C1 [Example 153, 2-((R)-1-((3S,5R)-3,5-dimethylpiperazin-1-yl)butyl)-3-ethyl-6-((S)-2-methyl-1-oxa-4,9-diazaspiro[5.5]undecan-4-yl)quinazolin-4(3H)-one] | – | – | 500 to 5000 | > 500 | –
11 | CCCC(c1nc2cc(OC)ccc2c(=O)n1CC)N1C[C@@H](C)N[C@@H](C)C1 (stereo partly drawn) [Example 6, 2-(1-((3S,5R)-3,5-dimethylpiperazin-1-yl)butyl)-3-ethyl-7-methoxyquinazolin-4(3H)-one] | < 500 | > 500 | – | – | –
12 | CCCC(c1nc2cc(F)c(Br)cc2c(=O)n1CC)N1CCNCC1 (centres unmarked) [Example 83, 6-bromo-3-ethyl-7-fluoro-2-(1-(piperazin-1-yl)butyl)quinazolin-4(3H)-one] | < 500 | 100 to 500 | – | – | –
13 | CCCC(c1nc2ccc(CCO)cc2c(=O)n1CC)N1C[C@@H](C)N[C@@H](C)C1 (stereo partly drawn) [Example 173, 2-(1-((3S,5R)-3,5-Dimethylpiperazin-1-yl)butyl)-3-ethyl-6-(2-hydroxyethyl)quinazolin-4(3H)-one] | < 500 | > 500 | – | – | –
14 | CCCC(c1nc2ccccc2c(=O)n1C)N1C[C@@H](C)N[C@@H](C)C1 (stereo partly drawn) [Example 2, 2-(1-((3S,5R)-3,5-dimethylpiperazin-1-yl)butyl)-3-methylquinazolin-4(3H)-one] | < 500 | > 500 | – | – | –
15 | CCCC(c1nc2cc(N(CC)C(=O)OC(C)(C)C)ccc2c(=O)n1CC)N1C[C@@H](C)N[C@@H](C)C1 (stereo partly drawn) [Example 26, tert-butyl (2-(1-((3S,5R)-3,5-dimethylpiperazin-1-yl)butyl)-3-ethyl-4-oxo-3,4-dihydroquinazolin-7-yl)(ethyl)carbamate] | – | – | 500 to 5000 | > 500 | –
16 | CCC[C@@H](c1nc2ccc(Cl)cc2c(=O)n1CC)N1CCN[C@@H](CF)C1 [Example 231, 6-chloro-3-ethyl-2-((S)-1-((R)-3-(fluoromethyl)piperazin-1-yl)butyl)quinazolin-4(3H)-one] | > 5000 | > 500 | – | – | –
17 | CCCC(c1nc2ccc(-c3ccncc3)cc2c(=O)n1CC)N1C[C@@H](C)N[C@@H](C)C1 (stereo partly drawn) [Example 132, 2-(1-((3S,5R)-3,5-Dimethylpiperazin-1-yl)butyl)-3-ethyl-6-(pyridin-4-yl)quinazolin-4(3H)-one] | < 500 | > 500 | – | – | –

Row | SMILES | Ki [1] [nM] | Ki (Human μ-opioid receptor) [nM] | Ki ([1]; read-out: α2δ-1 binding) [nM] | Ki (Human μ-opioid receptor; read-out: μ-binding) [nM] | Ki (Human μ-opioid receptor; binding to μ-opioid receptor expressed as Ki, + also Ki>500 nM or inhibition between 1% and 50%, read-out: μ-binding) [nM]
18 | CCCC(c1nc2ccc(Br)cc2c(=O)n1CC)N1CCNCC1 (centres unmarked) [Example 79, 6-Bromo-3-ethyl-2-(1-(piperazin-1-yl)butyl)quinazolin-4(3H)-one] | < 500 | > 500 | – | – | –
19 | CCCC(c1nc2cc(-c3ccnc(OC)c3)ccc2c(=O)n1CC)N1C[C@@H](C)N[C@@H](C)C1 (stereo partly drawn) [Example 135, 2-(1-((3S,5R)-3,5-dimethylpiperazin-1-yl)butyl)-3-ethyl-7-(2-methoxypyridin-4-yl)quinazolin-4(3H)-one] | < 500 | > 500 | – | – | –
20 | CCC[C@H](c1nc2cc(F)c(Br)cc2c(=O)n1CC)N1CCN[C@H](C)C1 [Example 208, 6-bromo-3-ethyl-7-fluoro-2-((R)-1-((R)-3-methylpiperazin-1-yl)butyl)quinazolin-4(3H)-one] | < 500 | > 500 | – | – | –
21 | CCCC(c1nc2c(C)cc(Br)cc2c(=O)n1CC)N1CCNCC1 (centres unmarked) [Example 89, 6-bromo-3-ethyl-8-methyl-2-(1-(piperazin-1-yl)butyl)quinazolin-4(3H)-one] | > 5000 | < 100 | – | – | –
22 | CCC[C@H](c1nc2ccc(Br)cc2c(=O)n1CC)N1CCNC(C)(C)C1 [Example 224, (R)-6-bromo-2-(1-(3,3-dimethylpiperazin-1-yl)butyl)-3-ethylquinazolin-4(3H)-one] | > 5000 | < 100 | – | – | –
23 | CCC[C@@H](c1nc2cc(Cl)c(Cl)cc2c(=O)n1CC)N1CCN[C@@H](C)C1 [Example 50, 6,7-dichloro-3-ethyl-2-((S)-1-((S)-3-methylpiperazin-1-yl)butyl)quinazolin-4(3H)-one] | > 5000 | > 500 | – | – | –
24 | CCCC(c1nc2cccnc2c(=O)n1CC)N1CCNCC1 (centres unmarked) [Example 92, 3-ethyl-2-(1-(piperazin-1-yl)butyl)pyrido[3,2-d]pyrimidin-4(3H)-one] | < 500 | > 500 | – | – | –
25 | CCC[C@@H](c1nc2cc(O[C@@H](CNC)c3ccccc3)ccc2c(=O)n1C)N1C[C@@H](C)N[C@@H](C)C1 [Example 171, 2-((S)-1-((3S,5R)-3,5-dimethylpiperazin-1-yl)butyl)-3-methyl-7-((R)-2-(methylamino)-1-phenylethoxy)quinazolin-4(3H)-one] | 500 to 5000 | > 500 | – | – | –
26 | CCCC(c1nc2ncccc2c(=O)n1CC)N1CCNCC1 (centres unmarked) [Example 94, 3-ethyl-2-(1-(piperazin-1-yl)butyl)pyrido[2,3-d]pyrimidin-4(3H)-one] | < 500 | > 500 | – | – | –
27 | CCC[C@H](c1nc2ccc(Br)cc2c(=O)n1CC)N1CCN(C)[C@H](C)C1 [Example 109, 6-Bromo-2-((R)-1-((R)-3,4-dimethylpiperazin-1-yl)butyl)-3-ethylquinazolin-4(3H)-one] | < 500 | 100 to 500 | – | – | –
28 | CCC[C@@H](c1nc2c(F)cc(Br)cc2c(=O)n1CC)N1CCN[C@@H](C)C1 [Example 52, 6-bromo-3-ethyl-8-fluoro-2-((S)-1-((S)-3-methylpiperazin-1-yl)butyl)quinazolin-4(3H)-one] | > 5000 | > 500 | – | – | –
29 | CCC[C@H](c1nc2cc(F)c(Cl)cc2c(=O)n1CC)N1CCN[C@@H](C)C1 [Example 53, 6-Chloro-3-ethyl-7-fluoro-2-((R)-1-((S)-3-methylpiperazin-1-yl)butyl)quinazolin-4(3H)-one] | < 500 | 100 to 500 | – | – | –
30 | CCC[C@@H](c1nc2ccc(Br)cc2c(=O)n1CC)N1CCN[C@@H](CCC(=O)O)C1 [Example 107, 3-((S)-4-((S)-1-(6-Bromo-3-ethyl-4-oxo-3,4-dihydroquinazolin-2-yl)butyl)piperazin-2-yl)propanoic acid] | – | – | > 5000 | > 500 | –
31 | CCCC(c1nc2ccc(CN(C)CCC(C)C)cc2c(=O)n1CC)N1C[C@@H](C)N[C@@H](C)C1 (stereo partly drawn) [Example 185, 2-(1-((3S,5R)-3,5-dimethylpiperazin-1-yl)butyl)-3-ethyl-6-((isopentyl(methyl)amino)methyl)quinazolin-4(3H)-one] | < 500 | > 500 | – | – | –
32 | CCCC(c1nc2ccc(Br)c(C)c2c(=O)n1CC)N1CCNCC1 (centres unmarked) [Example 84, 6-bromo-3-ethyl-5-methyl-2-(1-(piperazin-1-yl)butyl)quinazolin-4(3H)-one] | 500 to 5000 | 100 to 500 | – | – | –
33 | CCCC(c1nc2ccc(N(C)C3CCN(C)CC3)cc2c(=O)n1CC)N1C[C@@H](C)N[C@@H](C)C1 (stereo partly drawn) [Example 143, 2-(1-((3S,5R)-3,5-dimethylpiperazin-1-yl)butyl)-3-ethyl-6-(methyl(1-methylpiperidin-4-yl)amino)quinazolin-4(3H)-one] | < 500 | – | – | – | > 500
34 | CCCC(c1nc2ccc(N3CCCC3)cc2c(=O)n1CC)N1C[C@@H](C)N[C@@H](C)C1 (stereo partly drawn) [Example 138, 2-(1-((3S,5R)-3,5-dimethylpiperazin-1-yl)butyl)-3-ethyl-6-(pyrrolidin-1-yl)quinazolin-4(3H)-one] | < 500 | > 500 | – | – | –
